# Measured values: patent US20230041138A1, “TREATMENT OF HIS HYPORESPONDERS” (NewAmsterdam Pharma B.V. (Dutch Registration No. 55971946), priority 2021, published 2023)
# Where “and” joins values, the source holds several entries; their conditions need not be identical. Equal values may be shown once.
# Test system: Lipoprotein, lipid and apolipoprotein concentrations
# Assay: Phase 2 placebo-controlled study of obicetrapib as adjunct to high-intensity statin therapy: lipid efficacy
# Assay type: in vivo, human
# Conditions: for Apo A1, week 8 change, LS Mean ± SE / Apo B, week 8 change, LS Mean ± SE / HDL-C, week 8 change, LS Mean ± SE / LDL-C (Martin-Hopkins), week 8 change, LS Mean ± SE / Lp(a), week 8 change, LS Mean ± SE / Non-HDL-C, week 8 change, LS Mean ± SE / TG, week 8 change, LS Mean ± SE / VLDL-C, week 8 change, LS Mean ± SE / LDL-C by Friedewald, % change from baseline, LS mean: MMRM; for LDL-C (PUC), week 8 change, LS Mean ± SE (Table 9): analysis of covariance model; for LDL-C (Friedewald formula) reduced from baseline by: primary analysis; for LDL-C (Friedewald formula) reduced from baseline by / Apo B reduced by / Lp(a) reduced by / non-HDL-C reduced by: stated as reduction; for ApoB, % change from baseline, median / HDL-C, % change from baseline, median / LDL-C by Friedewald, % change from baseline (median) / LDL-C by PUC, % change from baseline (median) / Non-HDL-C, % change (median) from baseline / LDL-C by Friedewald, % change from baseline, LS mean: week 8, on top of high-intensity statin
# Description: The study consisted of three arms: 1) 5 mg obicetrapib as adjunctive therapy; 2) 10 mg obicetrapib as adjunctive therapy and 3) a placebo arm. The second objective was to evaluate other lipoprotein lipid and apolipoprotein responses, safety and tolerability profiles, and plasma concentrations of obicetrapib during treatment and for several weeks of follow-up. Lastly, this study aimed to determine if different quantitative measures of LDL-C levels produced differences in the treatment effects of CETP inhibition.
# This randomised, double-blind, placebo-controlled, parallel-group phase 2 trial was conducted in male and female patients (18-75 years), treated with high-intensity statin therapy, with LDL-C levels >70 mg/DL and TG levels <400 mg/dL. Key exclusion criteria were patients with BMI >40 kg/m; Significant cardiovascular disease; HbAc >10%; Uncontrolled hypertension; Active muscle disease; GFR <60 ml/min; Hepatic dysfunction; Anemia; History of malignancy; Alcohol abuse; Treatment with investigational product; Treatment with PCSK9 inhibitor; Clinically significant condition; and/or prior exposure to a CETP inhibitor. Patients were recruited at 19 sites in the United States. The trial was approved by Independent Ethics Committees, and each patient provided written informed consent. The trial was conducted in accordance with the principles of the Declaration of Helsinki and Good Clinical Practice Guidelines and the protocol was registered on ClinicalTrials.gov (NCT04753606).
# The screening period for this study took up to 2-weeks. Afterwards patients were randomized to placebo, 5 mg obicetrapib or 10 mg obicetrapib for an 8-week treatment period. After the treatment period, patients continued for a 4-week safety follow-up and a 15-week PK follow-up.
# Patients were randomly assigned to receive one of the three treatments investigative treatments. All treatments were to be taken once daily with food for 8 weeks. Safety was assessed throughout the trial by monitoring adverse events and concomitant medication use, 12-lead electrocardiograms (ECGs), vital signs, laboratory safety assessments and physical examinations. Additional assessments included salivary cortisol, plasma aldosterone, high-sensitivity C-reactive protein (hsCRP) and endothelin 1.
# Efficacy assessments included fasted lipid profiles including total cholesterol (TC), HDL-C, LDL-C, triglycerides, apolipoprotein B (ApoB), and derived parameters.
# Total cholesterol and triglycerides were measured by homogenous enzymatic assay using a Modular analyser (cholesterol oxidase peroxidase-peroxidase aminophenazone phenol [CHOP-PAP]) method and a glycerol phosphate oxidase [GPO-PAP] method, respectively. Apolipoprotein B was measured by immunoturbidimetry using reagents from Rolf Greiner Biochemica (Germany) and N apoprotein standard serum from Siemens (Germany). LDL particle size was determined by gradient gel electrophoresis. HDL fraction was separated by a combined ultracentrifugation-precipitation method (β-quantification). HDL-2 and HDL-3 fractions were then separated by further ultracentrifugation. Total-cholesterol in HDL, HDL 2 and HLD-3 fractions, free cholesterol in HDL fraction, triglycerides in HDL fraction and phospholipids in plasma and HDL-fraction were measured using enzymatic methods and reagents from Diasys Diagnostics (Germany). The measurements were performed on an Olympus AU600 automatic analyzer and were calibrated using secondary standards from Roche Diagnostics (total-cholesterol, triglycerides) and Diasys Diagnostics (free cholesterol, phospholipids), respectively. Esterified cholesterol was calculated as the difference between total-cholesterol and free cholesterol.
# The primary outcome measure was LDL-C (percent change). Secondary outcome measures included ApoB, Non-HDL-C and HDL-C (percent change). The Intent-to-Treat (ITT) Population included all participants randomized into the study. […]
# [1] = 5 mg once daily for 8 weeks on top of high-intensity statin
# [2] = 5 mg once daily on top of high-intensity statin
# [3] = 5 mg once daily on top of high-intensity statin, listed as obicetrapib
# [4] = 5 mg once daily, 8 weeks, on top of high-intensity statin
# [5] = 10 mg once daily for 8 weeks on top of high-intensity statin
# [6] = 10 mg once daily on top of high-intensity statin
# [7] = 10 mg once daily, 8 weeks, on top of high-intensity statin
smiles,measurement,setting,value
"CCOC(=O)N1c2ccc(C(F)(F)F)cc2[C@@H](N(Cc2cc(C(F)(F)F)cc(C(F)(F)F)c2)c2ncc(OCCCC(=O)O)cn2)C[C@H]1CC [Obicetrapib, (2R,4S)-4-{[3,5-bis(trifluoromethyl)benzyl]-[5-(3-carboxypropoxy)pyrimidin-2-yl]amino}-2-ethyl-6-trifluoromethyl-3,4-dihydro-2H-quinoline-1-carboxylic acid ethyl ester]",Time of treatment at which maximum LDL-C reductions were already present,5 mg and 10 mg add-on to high-intensity statin,≤ 4 weeks
same,"ApoB, EoT median",[1],65.0 mg/dL
same,"ApoB, change from baseline, median",[1],-22.0 mg/dL
same,"HDL-C, EoT median",[1],107.0 mg/dL
same,"HDL-C, change from baseline, median",[1],60.0 mg/dL
same,"LDL-C by Friedewald, EoT median",[1],51.0 mg/dL
same,"LDL-C by PUC, EoT median",[1],53.0 mg/dL
same,"Non-HDL-C, EoT median",[1],71 mg/dL
same,"Apo A1, week 8 change, median (min, max)",[2],"44.6% and 44.6 (−10.0, 87.1) %"
same,"LDL-C (Martin-Hopkins), week 8 change, median (min, max)",[2],"−42.5 (−80.8, 74.4) %"
same,"Lp(a), week 8 change, median (min, max)",[2],"−33.8 (−84.6, 93.8) %"
same,"TG, week 8 change, median (min, max)",[2],"−11.0 (−53.3, 86.7) %"
same,"VLDL-C, week 8 change, median (min, max)",[2],"−11.5 (−53.5, 83.3) %"
same,"Apo A1, week 8 change, LS Mean ± SE",[2],41.1 ± 3.04%
same,"Apo B, week 8 change, LS Mean ± SE",[2],−22.4 ± 2.58%
same,"HDL-C, week 8 change, LS Mean ± SE",[2],122 ± 6.59%
same,"LDL-C (Martin-Hopkins), week 8 change, LS Mean ± SE",[2],−39.6 ± 3.68%
same,"Lp(a), week 8 change, LS Mean ± SE",[2],−30.9 ± 4.43%
same,"Non-HDL-C, week 8 change, LS Mean ± SE",[2],−34.4 ± 3.18%
same,"TG, week 8 change, LS Mean ± SE",[2],−6.63 ± 5.32%
same,"VLDL-C, week 8 change, LS Mean ± SE",[2],−6.02 ± 5.24%
same,"LDL-C (PUC), week 8 change, LS Mean ± SE (Table 9)",[2],−35.7 ± 3.31%
same,"LDL-C (Martin-Hopkins), week 8 change, median (min, max)",[3],42.5%
same,"TG, week 8 change, median (min, max)",[3],−11.0%
same,"VLDL-C, week 8 change, median (min, max)",[3],−11.5%
same,"LDL-C by PUC, % change from baseline, LS mean (Table 3)",[4],−37.98%
same,LDL-C (Friedewald formula) reduced from baseline by,[4],42.9%
same,Apo B reduced by,[4],24.4%
same,Lp(a) reduced by,[4],33.8%
same,non-HDL-C reduced by,[4],38.9%
same,"ApoB, % change from baseline, median",5 mg once daily,"−24.40% and −24.4 (−58.5, 47.4) %"
same,"HDL-C, % change from baseline, median",5 mg once daily,"135% and 135.4% and 135 (−26.4, 213) %"
same,"LDL-C by Friedewald, % change from baseline (median)",5 mg once daily,"−42.90% and −42.9 (−81.9, 72.4) %"
same,"LDL-C by PUC, % change from baseline (median)",5 mg once daily,"−41.5% and −41.45% and −41.5 (−71.2, 62.3) %"
same,"Non-HDL-C, % change (median) from baseline",5 mg once daily,"−38.9% and −38.9 (−65.6, 66.3) %"
same,"LDL-C by Friedewald, % change from baseline, LS mean",5 mg once daily,−37.94% and −38.0 ± 3.49%
same,"LDL-C by PUC, % change from baseline (median)","5 mg once daily, listed as obicetrapib",−41.5%
same,"ApoB, EoT median",[5],58.5 mg/dL
same,"ApoB, change from baseline, median",[5],-24.5 mg/dL
same,"HDL-C, EoT median",[5],117.5 mg/dL
same,"HDL-C, change from baseline, median",[5],72.0 mg/dL
same,"LDL-C by Friedewald, EoT median",[5],52.0 mg/dL
same,"LDL-C by PUC, EoT median",[5],49.5 mg/dL
same,"Non-HDL-C, EoT median",[5],69 mg/dL
same,"Apo A1, week 8 change, median (min, max)",[6],"47.8% and 47.8 (13.5, 106) %"
same,"LDL-C (Martin-Hopkins), week 8 change, median (min, max)",[6],"−49.2 (−77.0, 28.1) %"
same,"Lp(a), week 8 change, median (min, max)",[6],"−56.5 (−85.7, 18.3) %"
same,"TG, week 8 change, median (min, max)",[6],"−7.85 (−63.7, 129) %"
same,"VLDL-C, week 8 change, median (min, max)",[6],"−7.90 (−44.4, 125) %"
same,"Apo A1, week 8 change, LS Mean ± SE",[6],52.3 ± 3.04%
same,"Apo B, week 8 change, LS Mean ± SE",[6],−28.1 ± 2.56%
same,"HDL-C, week 8 change, LS Mean ± SE",[6],157 ± 6.54%
same,"LDL-C (Martin-Hopkins), week 8 change, LS Mean ± SE",[6],−46.9 ± 3.65%
same,"Lp(a), week 8 change, LS Mean ± SE",[6],−42.0 ± 4.33%
same,"Non-HDL-C, week 8 change, LS Mean ± SE",[6],−39.9 ± 3.15%
same,"TG, week 8 change, LS Mean ± SE",[6],2.45 ± 5.27%
same,"VLDL-C, week 8 change, LS Mean ± SE",[6],3.08 ± 5.19%
same,"LDL-C (PUC), week 8 change, LS Mean ± SE (Table 9)",[6],−46.8 ± 3.23%
same,"LDL-C (Martin-Hopkins), week 8 change, median (min, max)","10 mg once daily on top of high-intensity statin, listed as obicetrapib",−49.2%
same,"LDL-C by PUC, % change from baseline, LS mean (Table 3)",[7],−44.15%
same,"TG and VLDL-C, comparison with placebo",[7],not significantly different
same,LDL-C (Friedewald formula) reduced from baseline by,[7],45.7%
same,Apo B reduced by,[7],29.8%
same,Lp(a) reduced by,[7],56.5%
same,non-HDL-C reduced by,[7],44.4%
same,"ApoB, % change from baseline, median",10 mg once daily,"−29.75% and −29.8 (−58.4, 13.0) %"
same,"HDL-C, % change from baseline, median",10 mg once daily,"165% and 165 (55.1,286) %"
same,"LDL-C by Friedewald, % change from baseline (median)",10 mg once daily,"−45.65% and −45.7 (−78.0, 26.2) %"
same,"LDL-C by PUC, % change from baseline (median)",10 mg once daily,"−50.8% and −50.75% and −50.8 (−76.9, 15.6) %"
same,"Non-HDL-C, % change (median) from baseline",10 mg once daily,"−44.4% and −44.4 (.70.2, 22.5) %"
same,"LDL-C by Friedewald, % change from baseline, LS mean",10 mg once daily,−44.15% and −44.2 ± 3.46%
same,"LDL-C by PUC, % change from baseline (median)","10 mg once daily, listed as obicetrapib",−50.8%
same,"median Apo B reduction from baseline, post-hoc analysis","10 mg, individuals with baseline Apo B >100 mg/dL",39%
